In the supplement of paper PMC10883282:
± gives the standard deviation of the averaged measurements.

Test system: VA-ES-BJ
Experiment: relative viability vs DMSO control (72 h) (fraction); higher = more viable cells
Outline: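 Sarcoma cell lines were seeded in 384-well plates at densities set to reach 80–90% confluence. After 24 h, 2.5 µl of serially diluted compound was added (source plates 10 mM to 0.0002 mM), and plates were held 72 h at 37 °C, 5% CO2, with 0.1% DMSO vehicle and a 5 µM positive control. Relative viability came from ATPLite readings as percent growth, averaged over up to triplicate wells. Data were rescaled so full viability equals 1 and none equals 0.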

| SMILES | relative viability (0.00017 µM) | relative viability (0.00051 µM) | relative viability (0.00152 µM) | relative viability (0.00457 µM) | relative viability (0.01372 µM) | relative viability (0.04115 µM) | relative viability (0.1235 µM) | relative viability (0.3704 µM) | relative viability (1.111 µM) | relative viability (3.333 µM) | relative viability (10 µM) |
| --- | --- | --- | --- | --- | --- | --- | --- | --- | --- | --- | --- |
| CC(C)N1CCN(Cc2cnc(-c3cc(-c4cccc5[nH]ccc45)cc4[nH]ncc34)o2)CC1 [Nemiralisib] | 0.985 ± 0.032 | 0.987 ± 0.045 | 0.981 ± 0.047 | 1.01 ± 0.04 | 0.96 ± 0.026 | 0.965 ± 0.041 | 0.982 ± 0.038 | 0.9285 ± 0.0062 | 0.901 ± 0.049 | 0.811 ± 0.017 | 0.655 ± 0.038 |
| Cc1ccc(NC(=O)c2ccc(CN3CCN(C)CC3)cc2)cc1Nc1nc(-c2cccnc2)cs1 [Masitinib] | 1.08 ± 0.016 | 1.078 ± 0.0055 | 1.05 ± 0.019 | 1.06 ± 0.033 | 1.08 ± 0.022 | 1.05 ± 0.013 | 1.02 ± 0.024 | 1.01 ± 0.038 | 0.897 ± 0.02 | 0.621 ± 0.016 | 0.177 ± 0.0072 |
| CCc1cc2c(cc1N1CCC(N3CCOCC3)CC1)C(C)(C)c1[nH]c3cc(C#N)ccc3c1C2=O [Alectinib] | 1.03 ± 0.047 | 1.07 ± 0.042 | 1.04 ± 0.057 | 1.04 ± 0.027 | 1.02 ± 0.041 | 1.06 ± 0.048 | 1.04 ± 0.0046 | 0.891 ± 0.27 | 0.912 ± 0.26 | 0.941 ± 0.24 | 0.905 ± 0.25 |
| COc1cc2nccc(Oc3ccc(NC(=O)Nc4cc(C)on4)c(Cl)c3)c2cc1OC [Tivozanib] | 1.04 ± 0.022 | 1.07 ± 0.017 | 1.05 ± 0.019 | 1.05 ± 0.025 | 1.05 ± 0.026 | 1.05 ± 0.028 | 1.1 ± 0.04 | 1.14 ± 0.048 | 1.16 ± 0.1 | 1.16 ± 0.12 | 0.812 ± 0.065 |
